# Measurements taken from patent US10675267B2, “Methods for detection and eradication of myeloid leukemia stem cells” (priority 2015, dated 2020).
# “Also recorded” adds a separate entry of the source.
# Legend:
# KG1a cells = test: In vitro splicing of endogenous transcripts (qRT-PCR) in KG1a; type: cell-based; details: KG1a AML cells, compared with MOLM-13
# Experimental: For qRT-PCR analysis of relative total mRNA expression levels or splice isoform-specific expression analyses, cDNA was synthesized using 50 ng-1 […] reaction volumes using the First-Strand SUPERSCRIPT™ III Reverse Transcriptase Supermix (Life Technologies) followed by incubation with RNase H according to the manufacturer's protocol and as described previously (Abrahamsson et al., 2009; Crews et al., 2015). All cDNA products were stored at −20° C. Splice isoform-specific primers for PTK2B-202 were designed to bind to unique exon junctions for this transcript, which lacks exon 24. All primers (Supplemental Experimental Procedures Table) were diluted to 10 ∝M working dilutions in DNase/RNase-free water. qRT-PCR was performed in duplicate using cDNA (1 ∝Λ reverse transcription product per reaction) on an iCycler (Bio-Rad, Hercules, Calif.) using SYBR® GREENER™ Super Mix (Life Technologies) in 25-∝A volume reactions containing 0.2 ∝M of each forward and reverse primer. Cycling conditions were as follows: 50° C. for 2 minutes, then 95° C. for 8 minutes and 30 seconds, followed by 40 cycles of 95° C. for 15 seconds and 60° C. for 60 seconds. […] For standard qRT-PCR, human HPRT mRNA transcript levels were used to normalize Ct values obtained for each gene, and relative expression levels were calculated using the 2-ddCt method. […]
# MOLM-13 cells = test: In vitro splicing of endogenous transcripts (qRT-PCR, RT-PCR) in MOLM-13; type: cell-based
# Experimental: For qRT-PCR analysis of relative total mRNA expression levels or splice isoform-specific expression analyses, cDNA was synthesized using 50 ng-1 […] of template RNA in 20 μL reaction volumes using the First-Strand SUPERSCRIPT™ III Reverse Transcriptase Supermix (Life Technologies) followed by incubation with RNase H according to the manufacturer's protocol and as described previously. All cDNA products were stored at −20° C. Splice isoform-specific primers for PTK2B-202 were designed to bind to unique exon junctions for this transcript, which lacks exon 24. All primers (Table 2) were diluted to 10 μM working dilutions in DNase/RNase-free water. qRT-PCR was performed in duplicate using cDNA (1 μL reverse transcription product per reaction) on an iCycler (Bio-Rad, Hercules, Calif.) using SYBR® GREENER™ Super Mix (Life Technologies) in 25-μL volume reactions containing 0.2 μM of each forward and reverse primer. Cycling conditions were as follows: 50° C. for 2 minutes, then 95° C. for 8 minutes and 30 seconds, followed by 40 cycles of 95° C. for 15 seconds and 60° C. for 60 seconds. Melting curve analysis was performed on each plate according to the manufacturer's instructions. For standard qRT-PCR, human HPRT mRNA transcript levels were used to normalize Ct values obtained for each gene, and relative expression levels were calculated using the 2^−ddCt method. To ensure validity of results, only Ct values <35 were used in gene expression analyses. All primer sets were tested in a no-template control (NTC) reaction containing only water instead of cDNA, and all gave Ct values >35 in NTC reactions.
# For evaluation of in vitro splicing activity of endogenous transcripts in HEK293 or a sAML cell line, MOLM-13 (mycoplasma-free and cytogenetically-authenticated cell lines obtained from DMSZ), cells were plated in complete media (DMEM containing 10% FBS for HEK293 and RPMI containing 20% FBS for MOLM-13). The next day, FD-895, 17S-FD-895 or DMSO vehicle controls were added at doses ranging from 0.01-10 μM for 4 hrs of treatment. Cells were lysed in RLT buffer (Qiagen) and processed for RNA extraction and subsequent PCR analyses using primers specific for DNAJB1 or MCL1 (Table 2). For all experiments in cell line, cells obtained from the vendors were frozen down in bulk at low passage numbers and used within 20 passages to minimize risk of cell line misidentification or acquisition of additional chromosomal abnormalities.
# For qRT-PCR analysis of relative total mRNA expression levels or splice isoform-specific expression analyses, cDNA was synthesized using 50 ng-1 […] reaction volumes using the First-Strand SUPERSCRIPT™ III Reverse Transcriptase Supermix (Life Technologies) followed by incubation with RNase H according to the manufacturer's protocol and as described previously (Abrahamsson et al., 2009; Crews et al., 2015). All cDNA products were stored at −20° C. Splice isoform-specific primers for PTK2B-202 were designed to bind to unique exon junctions for this transcript, which lacks exon 24. All primers (Supplemental Experimental Procedures Table) were diluted to 10 ∝M working dilutions in DNase/RNase-free water. qRT-PCR was performed in duplicate using cDNA (1 ∝Λ reverse transcription product per reaction) on an iCycler (Bio-Rad, Hercules, Calif.) using SYBR® GREENER™ Super Mix (Life Technologies) in 25-∝A volume reactions containing 0.2 ∝M of each forward and reverse primer. Cycling conditions were as follows: 50° C. for 2 minutes, then 95° C. for 8 minutes and 30 seconds, followed by 40 cycles of 95° C. for 15 seconds and 60° C. for 60 seconds. Melting curve analysis was performed on each plate according to the manufacturer's instructions. For standard qRT-PCR, human HPRT mRNA transcript levels were used to normalize Ct values obtained for each gene, and relative expression levels were calculated using the 2-ddCt method. To ensure validity of results, only Ct values <35 were used in gene expression analyses. […]
compound,measurement,setting,value
"CC[C@H](OC)[C@@H](C)[C@H]1O[C@@H]1[C@@H](O)[C@H](C)/C=C/C=C(\C)[C@H]1OC(=O)C[C@H](O)CC[C@@](C)(O)[C@@H](OC(C)=O)/C=C/[C@@H]1C (stereo in doubt) [Formula 17S-FD-895, 17S-FD-895]",DNAJB1 intron 2 levels,KG1a cells,to a lesser extent
same,EC50 of the 1 μM treatment condition (time course of DNAJB1 intron 2 retention),"MOLM-13 cells; MOLM-13, 1 μM, 30 mins-24 hrs, qRT-PCR, 95% C.I.",3.2 to 6.5 h
same,MCL1-S expression (qRT-PCR),"MOLM-13 cells; MOLM-13, 0.01-10 μM, 4 hrs","low doses of 17S-FD-895 increased MCL1-S expression, this effect was reversed at high doses"
same,PTK2B-202 expression (isoform-specific qRT-PCR),"MOLM-13 cells; MOLM-13, short-term treatment",reduced expression
same,time at which the increase in DNAJB1 intron 2 levels occurred after initiation of treatment,MOLM-13 cells; MOLM-13 sAML cells,30 min
same,DNAJB1 intron 2 retention,"MOLM-13 cells; MOLM-13 sAML cells, 0.01-10 μM 4 hrs, time course 30 mins-24 hrs",rapid and dose-dependent increase; also recorded: time- and dose-dependent increase
same,"MCL1 splicing pattern (RT-PCR, primers flanking exon 2)","MOLM-13 cells; MOLM-13 versus HEK293, 4 hrs",triggered MCL1 exon 2 skipping; also recorded: increased intron retention predominantly in sAML cells (MOLM-13)
